Source: patent US9879058B2, “Use of compounds that selectively modulate astrocytic release of substances through hemichannels of connexins and pannexins, without influencing gap junctions, for the treatment of psychiatric disorders” (Universidad Andres Bello, priority 2012, dated 2018)
Entries after “also recorded” stand apart in the source; their conditions may differ. No end group written: not given here.

Columns and labels:
Sprague Dowley rats = test: Auditory fear conditioning with microinfusion into the basolateral amygdala; assay type: in vivo, rat
Description: A. Animals: All procedures involving animals were in accordance to NIH guidelines and with approval of the bioethical committee of the Universidad Andrés Bello. Sprague Dowley rats (˜60 d old, ˜250 g) were caged individually at 22° C., 12/12 h light/dark cycle. The rats remained in their home box throughout the study, and were removed only briefly for drug microinfusion. B. Drugs: TAT-Cx43L2 ([…] (SEQ ID NO: 1), LifeTein, South Plainfield, N.J., USA, >90% purity) was dissolved in PBS to yield final solutions of 1 mM, 100 μM, 10 μM, 1 μM or 100 nM. Unless stated otherwise, the concentration used for microinfusions of TAT-Cx43L2 was 1 mM. As a control, TAT-Cx43L2^H126K/I130N was used at 1 mM. Gap27 (AnaSpec, Fremont, Calif., USA, >95% purity) and Gap27 scramble were dissolved to a final concentration of 1 mM. For the recovery cocktail, 100 mM glutamate (Sigma), D-serine (200 nM), glutamine (100 mM), ATP (100 μM), lactate (10 mM) and glycine (100 nM) were diluted in sterile saline. C. Apparatus: All behavioral essays were performed in a sound attenuating cubicle. Conditioning and tone testing were conducted in different chambers. For conditioning, rats were placed in a Plexiglas chamber with a metal grid floor (40 cm×40 cm×40 cm). The chamber was dimly illuminated by a red light. For testing, rats were placed in a different Plexiglas chamber without the metal grid (60 cm×40 cm) dimly illuminated by a white light bulb. A video camera was mounted at the top of each chamber to allow digital recording throughout the experiments. D. Surgery and histology: Under ketamine/xylazine anesthesia ([…], respectively), rats were stereotaxically implanted with bilateral 22-gauge stainless steel cannulas aimed 1.0 mm above the basolateral amygdala (3.0 mm posterior to Bregma, 5.3 mm lateral to the midline, and 8.0 mm ventral to the skull surface (Paxinos, G., Watson, C. (1998). The Rat Brain in Stereotaxic Coordinates; Press A, editor. San Diego). The cannulas were fixed with acrylic dental cement and secured by 4 skull screws. A stylus was placed inside the guide cannula to prevent clogging. Rats were given at least 7 days to recover before experimental procedures began.
In all experiments, stylus was removed from the guide cannula, and a 28-gauge injection cannula was inserted through the guide cannula, extending 1.0 mm beyond its tip into the BLA. Drugs were infused slowly via the injection cannula, connected by PE20 tubing to Hamilton microsyringes driven by a microinfusion pump. Infusions were of 0.25 μl per hemisphere at a rate of 0.32 μl/min. Following drug infusion, injecting cannulaes were left in place for 10 minutes to allow drug diffusion away from the cannula tip. Cannula placement and maximal diffusion was verified by infusing 0.5 μl of India ink in a group of 5 rats. The maximal diffusion spread observed included only lateral and basal amygdala nuclei. At the end of all experiments, animals were anesthetized as above and perfused intracardially with saline, 4% buffered paraformaldehyde. Brains were extracted and postfixed in 30% sucrose until density equaled that of sucrose. […] Animals with histological lesions beyond the size of the cannula tip and guide cannula diameter were excluded from the analysis.
E. Behavioral procedures: The conditioning is based on the animal learning that a previously neutral stimulus (a conditioned stimulus, CS; e.g. an innocuous sound) becomes predictive of a stressful stimulus (unconditioned stimulus, US; e.g. footshock). In all of experiments, rats were habituated to handling during the 7 recovery days and also habituated to the training and testing chambers for 3 days, 10 min each day. On the conditioning day, the animals were left in the chamber for 3 minutes before beginning of the training. Each training session consisted of 3 CS-US pairings in 30 s intervals. […]

Cx43 hemichannels = Cx43 hemichannels (Homo sapiens, UniProt P17302); conditions: cited from earlier work
Chain of Cx43 hemichannels (P17302 whole entry): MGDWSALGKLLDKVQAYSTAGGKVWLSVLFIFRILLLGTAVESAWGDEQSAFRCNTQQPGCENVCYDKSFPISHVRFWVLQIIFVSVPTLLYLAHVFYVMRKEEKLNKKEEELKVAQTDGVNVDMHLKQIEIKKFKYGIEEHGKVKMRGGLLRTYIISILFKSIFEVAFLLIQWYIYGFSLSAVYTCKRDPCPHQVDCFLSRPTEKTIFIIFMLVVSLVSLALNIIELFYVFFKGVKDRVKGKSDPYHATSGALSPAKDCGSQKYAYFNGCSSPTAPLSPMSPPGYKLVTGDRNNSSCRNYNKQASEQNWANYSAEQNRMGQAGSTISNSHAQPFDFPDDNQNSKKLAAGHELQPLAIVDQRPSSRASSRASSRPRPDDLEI

[1] = 1 mM into BLA 10 min before training

Q: Which “long term fear memory (freezing to tone) 24 h after training” value (Sprague Dowley rats; [1]) does the source give for “YGRKKRRQRRRDGANVDMHLKQIEIKKFKYGIEEHGK [TAT-Cx43L2, synthetic cell-permeable peptide corresponding to the Cx43L2 region (aa 119-144) of the cytoplasmic loop of Cx43]” here?
A: strongly impaired fear conditioning memory consolidation; also recorded: complete amnesia

Q: What about the “short term memory (freezing to tone between the 3 pairings during training)” value (Sprague Dowley rats; [1]) of the same sequence?
A: not affected; also recorded: unaffected short term memory

Q: And the “concentration dependence of amnesic effect” value (Sprague Dowley rats; microinfusion into BLA)?
A: concentration dependent

Q: And the “lower concentration still capable of inducing amnesic effects” value (Sprague Dowley rats; microinfusion into BLA)?
A: 10 nM

Q: And the “memory when injected 6 h after training” value (Sprague Dowley rats; microinjection into BLA 6 h after learning)?
A: had no effects on memory when injected 6 h after training; also recorded: no memory deficits

Q: And the “learning capacity on retraining” value (Sprague Dowley rats; retrained 48 h after the initial conditioning)?
A: recovered their capacity to learn; also recorded: recovered their learning capacity

Q: And the “effect on Cx43 hemichannels, previously shown” value (Cx43 hemichannels)?
A: selectively block Cx43 hemichannels
